Reference: PubChem BioAssay (NCI)
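The compound was tested at five concentrations on cells cultured in 96-well plates, with a 48-hour exposure period. TGI: total growth inhibition.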

Key:
Experiment in all cases: DTP human tumour cell line panel, 48 h
SK-MEL-5 melanoma = tested on: SK-MEL-5 melanoma
XF 498 CNS = tested on: XF 498 CNS
RPMI-8226 leukemia = tested on: RPMI-8226 leukemia
MOLT-4 leukemia = tested on: MOLT-4 leukemia
A498 renal = tested on: A498 renal
COLO 205 colon = tested on: COLO 205 colon
SK-MEL-28 melanoma = tested on: SK-MEL-28 melanoma
M14 melanoma = tested on: M14 melanoma
NCI-H226 lung = tested on: NCI-H226 lung
OVCAR-5 ovarian = tested on: OVCAR-5 ovarian
IGROV1 ovarian = tested on: IGROV1 ovarian
HOP-62 NSCLC = tested on: HOP-62 NSCLC
SNB-78 CNS = tested on: SNB-78 CNS
K-562 leukemia = tested on: K-562 leukemia
LOX IMVI melanoma = tested on: LOX IMVI melanoma
DLD-1 colon = tested on: DLD-1 colon
OVCAR-8 ovarian = tested on: OVCAR-8 ovarian
OVCAR-3 ovarian = tested on: OVCAR-3 ovarian
CAKI-1 renal = tested on: CAKI-1 renal
HCT-15 colon = tested on: HCT-15 colon
UACC-257 melanoma = tested on: UACC-257 melanoma
ACHN renal = tested on: ACHN renal
DMS 114 small cell lung = tested on: DMS 114 small cell lung
NCI-H23 lung = tested on: NCI-H23 lung
SNB-75 CNS = tested on: SNB-75 CNS
OVCAR-4 ovarian = tested on: OVCAR-4 ovarian
KM20L2 colon = tested on: KM20L2 colon
SK-MEL-2 melanoma = tested on: SK-MEL-2 melanoma
M19-MEL melanoma = tested on: M19-MEL melanoma
HOP-18 NSCLC = tested on: HOP-18 NSCLC
SK-OV-3 ovarian = tested on: SK-OV-3 ovarian
TK-10 renal = tested on: TK-10 renal
SF-539 CNS = tested on: SF-539 CNS
UO-31 renal = tested on: UO-31 renal
SN12C renal = tested on: SN12C renal
CCRF-CEM leukemia = tested on: CCRF-CEM leukemia
DMS 273 small cell lung = tested on: DMS 273 small cell lung
UACC-62 melanoma = tested on: UACC-62 melanoma
RXF-631 renal = tested on: RXF-631 renal
KM12 colon = tested on: KM12 colon
A549 NSCLC = tested on: A549 NSCLC
EKVX NSCLC = tested on: EKVX NSCLC
SNB-19 CNS = tested on: SNB-19 CNS
SF-295 CNS = tested on: SF-295 CNS
786-0 renal = tested on: 786-0 renal
HOP-92 NSCLC = tested on: HOP-92 NSCLC
NCI-H460 lung = tested on: NCI-H460 lung
SW-620 colon = tested on: SW-620 colon
HCT-116 colon = tested on: HCT-116 colon
MALME-3M melanoma = tested on: MALME-3M melanoma
SF-268 CNS = tested on: SF-268 CNS
HCC-2998 colon = tested on: HCC-2998 colon
HT29 colon = tested on: HT29 colon
SR leukemia = tested on: SR leukemia
HL-60(TB) leukemia = tested on: HL-60(TB) leukemia
LXFL 529 NSCLC = tested on: LXFL 529 NSCLC
U251 CNS = tested on: U251 CNS
RXF 393 renal = tested on: RXF 393 renal
NCI-H522 lung = tested on: NCI-H522 lung

## COc1ccc(Cc2c(=O)[nH]nc3ccccc23)cc1
SK-MEL-5 melanoma
  TGI: > 100 µM
XF 498 CNS
  TGI: > 100 µM
RPMI-8226 leukemia
  TGI: > 100 µM
MOLT-4 leukemia
  TGI: > 100 µM
A498 renal
  TGI: > 100 µM
COLO 205 colon
  TGI: > 100 µM
SK-MEL-28 melanoma
  TGI: > 100 µM
M14 melanoma
  TGI: > 100 µM
NCI-H226 lung
  TGI: > 100 µM
OVCAR-5 ovarian
  TGI: > 100 µM
IGROV1 ovarian
  TGI: > 100 µM
HOP-62 NSCLC
  TGI: > 100 µM
SNB-78 CNS
  TGI: > 100 µM
K-562 leukemia
  TGI: > 100 µM
LOX IMVI melanoma
  TGI: > 100 µM
DLD-1 colon
  TGI: > 100 µM
OVCAR-8 ovarian
  TGI: > 100 µM
OVCAR-3 ovarian
  TGI: > 100 µM
CAKI-1 renal
  TGI: > 100 µM
HCT-15 colon
  TGI: > 100 µM
UACC-257 melanoma
  TGI: > 100 µM
ACHN renal
  TGI: > 100 µM
DMS 114 small cell lung
  TGI: > 100 µM
NCI-H23 lung
  TGI: > 100 µM
SNB-75 CNS
  TGI: > 100 µM
OVCAR-4 ovarian
  TGI: > 100 µM
KM20L2 colon
  TGI: > 100 µM
SK-MEL-2 melanoma
  TGI: > 100 µM
M19-MEL melanoma
  TGI: > 100 µM
HOP-18 NSCLC
  TGI: > 100 µM
SK-OV-3 ovarian
  TGI: > 100 µM
TK-10 renal
  TGI: > 100 µM
SF-539 CNS
  TGI: > 100 µM
UO-31 renal
  TGI: > 100 µM
SN12C renal
  TGI: > 100 µM
CCRF-CEM leukemia
  TGI: > 100 µM
DMS 273 small cell lung
  TGI: > 100 µM
UACC-62 melanoma
  TGI: > 100 µM
RXF-631 renal
  TGI: > 100 µM
KM12 colon
  TGI: > 100 µM
A549 NSCLC
  TGI: > 100 µM
EKVX NSCLC
  TGI: > 100 µM
SNB-19 CNS
  TGI: > 100 µM
SF-295 CNS
  TGI: > 100 µM
786-0 renal
  TGI: > 100 µM
HOP-92 NSCLC
  TGI: > 100 µM
NCI-H460 lung
  TGI: > 100 µM
SW-620 colon
  TGI: > 100 µM
HCT-116 colon
  TGI: > 100 µM
MALME-3M melanoma
  TGI: > 100 µM
SF-268 CNS
  TGI: > 100 µM
HCC-2998 colon
  TGI: > 100 µM
HT29 colon
  TGI: > 100 µM

## Cc1nn2c(nc1=O)sc1ccc3ccccc3c12
SK-MEL-5 melanoma
  TGI: > 100 µM
XF 498 CNS
  TGI: > 100 µM
MOLT-4 leukemia
  TGI: > 100 µM
COLO 205 colon
  TGI: > 100 µM
SK-MEL-28 melanoma
  TGI: > 100 µM
M14 melanoma
  TGI: > 100 µM
NCI-H226 lung
  TGI: > 100 µM
SR leukemia
  TGI: > 100 µM
OVCAR-5 ovarian
  TGI: > 100 µM
IGROV1 ovarian
  TGI: > 100 µM
HOP-62 NSCLC
  TGI: > 100 µM
SNB-78 CNS
  TGI: > 100 µM
K-562 leukemia
  TGI: > 100 µM
LOX IMVI melanoma
  TGI: > 100 µM
DLD-1 colon
  TGI: > 100 µM
OVCAR-8 ovarian
  TGI: > 100 µM
OVCAR-3 ovarian
  TGI: > 100 µM
CAKI-1 renal
  TGI: > 100 µM
HL-60(TB) leukemia
  TGI: > 100 µM
HCT-15 colon
  TGI: > 100 µM
UACC-257 melanoma
  TGI: > 100 µM
LXFL 529 NSCLC
  TGI: > 100 µM
ACHN renal
  TGI: > 100 µM
DMS 114 small cell lung
  TGI: > 100 µM
NCI-H23 lung
  TGI: > 100 µM
U251 CNS
  TGI: > 100 µM
SNB-75 CNS
  TGI: > 100 µM
OVCAR-4 ovarian
  TGI: > 100 µM
KM20L2 colon
  TGI: > 100 µM
SK-MEL-2 melanoma
  TGI: > 100 µM
M19-MEL melanoma
  TGI: > 100 µM
HOP-18 NSCLC
  TGI: > 100 µM
SK-OV-3 ovarian
  TGI: > 100 µM
TK-10 renal
  TGI: > 100 µM
SF-539 CNS
  TGI: > 100 µM
UO-31 renal
  TGI: > 100 µM
SN12C renal
  TGI: > 100 µM
CCRF-CEM leukemia
  TGI: > 100 µM
DMS 273 small cell lung
  TGI: > 100 µM
UACC-62 melanoma
  TGI: > 100 µM
KM12 colon
  TGI: > 100 µM
RXF 393 renal
  TGI: > 100 µM
A549 NSCLC
  TGI: > 100 µM
EKVX NSCLC
  TGI: > 100 µM
SNB-19 CNS
  TGI: > 100 µM
SF-295 CNS
  TGI: > 100 µM
786-0 renal
  TGI: > 100 µM
HOP-92 NSCLC
  TGI: > 100 µM
NCI-H460 lung
  TGI: > 100 µM
SW-620 colon
  TGI: > 100 µM
HCT-116 colon
  TGI: > 100 µM
MALME-3M melanoma
  TGI: > 100 µM
SF-268 CNS
  TGI: > 100 µM
HCC-2998 colon
  TGI: > 100 µM
HT29 colon
  TGI: > 100 µM

## COc1cc2c(cc1OC)CC(=O)Nc1cc(OC)c(OC)cc1CC2
SK-MEL-5 melanoma
  TGI: 71 µM
XF 498 CNS
  TGI: > 100 µM
RPMI-8226 leukemia
  TGI: > 20 µM
MOLT-4 leukemia
  TGI: > 100 µM
A498 renal
  TGI: > 100 µM
COLO 205 colon
  TGI: > 100 µM
SK-MEL-28 melanoma
  TGI: > 100 µM
M14 melanoma
  TGI: > 100 µM
NCI-H226 lung
  TGI: > 100 µM
SR leukemia
  TGI: > 43.7 µM
OVCAR-5 ovarian
  TGI: > 100 µM
IGROV1 ovarian
  TGI: > 100 µM
HOP-62 NSCLC
  TGI: > 100 µM
SNB-78 CNS
  TGI: > 100 µM
K-562 leukemia
  TGI: > 100 µM
LOX IMVI melanoma
  TGI: > 100 µM
DLD-1 colon
  TGI: > 100 µM
OVCAR-8 ovarian
  TGI: > 100 µM
OVCAR-3 ovarian
  TGI: > 100 µM
CAKI-1 renal
  TGI: > 100 µM
HL-60(TB) leukemia
  TGI: 64.3 µM
HCT-15 colon
  TGI: > 100 µM
UACC-257 melanoma
  TGI: > 100 µM
LXFL 529 NSCLC
  TGI: > 100 µM
ACHN renal
  TGI: > 100 µM
DMS 114 small cell lung
  TGI: 91.9 µM
NCI-H23 lung
  TGI: > 100 µM
U251 CNS
  TGI: > 100 µM
SNB-75 CNS
  TGI: > 100 µM
OVCAR-4 ovarian
  TGI: > 100 µM
KM20L2 colon
  TGI: > 100 µM
SK-MEL-2 melanoma
  TGI: > 100 µM
M19-MEL melanoma
  TGI: > 100 µM
HOP-18 NSCLC
  TGI: > 100 µM
SK-OV-3 ovarian
  TGI: > 100 µM
TK-10 renal
  TGI: > 100 µM
SF-539 CNS
  TGI: 97.2 µM
UO-31 renal
  TGI: > 100 µM
SN12C renal
  TGI: > 100 µM
CCRF-CEM leukemia
  TGI: > 100 µM
DMS 273 small cell lung
  TGI: > 100 µM
UACC-62 melanoma
  TGI: > 100 µM
RXF-631 renal
  TGI: > 100 µM
KM12 colon
  TGI: > 100 µM
A549 NSCLC
  TGI: > 100 µM
EKVX NSCLC
  TGI: > 100 µM
SNB-19 CNS
  TGI: > 100 µM
SF-295 CNS
  TGI: > 100 µM
786-0 renal
  TGI: > 100 µM
HOP-92 NSCLC
  TGI: > 100 µM
NCI-H460 lung
  TGI: > 100 µM
SW-620 colon
  TGI: > 100 µM
HCT-116 colon
  TGI: > 100 µM
MALME-3M melanoma
  TGI: 99 µM
NCI-H522 lung
  TGI: 47.5 µM
SF-268 CNS
  TGI: > 100 µM
HCC-2998 colon
  TGI: > 100 µM
HT29 colon
  TGI: > 100 µM
